Reference: patent publication US20250340561A1, “QUINAZOLINE COMPOUND FOR INDUCING DEGRADATION OF G12D MUTANT KRAS PROTEIN” (Astellas Pharma Inc., priority 2021, published 2025)
pIC50: −log10 of the molar value. Like-named read-outs stand apart in the source and are kept apart here.

Tests used:
[1] = tested on: human G12D mutant KRAS-positive pancreatic cancer line AsPC-1; experiment: Test Example 3: non-anchorage-dependent cell growth inhibition, spheroid 3D cell culture; type: cell-based; conditions: Homo sapiens, ASPC1, 144 h, AsPC-1 spheroid 3D culture, 6 days, CellTiter Glo 2.0
Outline: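 AsPC-1 cells were grown as spheroids (5×10^2 cells/well, low-adhesion round-bottom plates). Next day they were treated with compound at 6 final concentrations from 10 μM to 3.0 nM for 6 days at 37 °C, and viability was read by CellTiter Glo luminescence. IC50 came from Sigmoid-Emax nonlinear regression, normalized between DMSO-treated and cell-free wells.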

[2] = tested on: phosphorylation of ERK (Thr202/Tyr204); experiment: Test Example 2: ERK phosphorylation inhibition action in AsPC-1, Cell ELISA; type: cell-based, human; conditions: Homo sapiens, ASPC1, 24 h, AsPC-1 cells, 0% = 1 μM trametinib
Outline: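 AsPC-1 cells (KRAS G12D) treated 24 h with compound (6 points, 10 μM to 3.0 nM final) in RPMI 1640/10% FBS. Fixed with glyoxal; pERK Thr202/Tyr204 detected by In-Cell ELISA with 800 nm fluorescence. IC50 by Sigmoid-Emax regression, with DMSO set to 100% and 1 μM trametinib to 0%.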

Compound | pIC50 [1] | pIC50 [2] | pIC50 ([1]; read-out: IC50) | pIC50 ([2]; read-out: IC50)
CO[C@@H](C)[C@H](C)Oc1nc(N2C[C@@H]3C[C@H]2CN3)c2cc(C3CC3)c(-c3c(C)c(F)cc4[nH]ncc34)c(OCc3ccc(-c4cn([C@H](C(=O)N5C[C@H](O)C[C@H]5C(=O)N[C@@H](CO)c5ccc(-c6scnc6C)cc5)C(C)C)nn4)cc3)c2n1 [Example 41] | 7.51 | 7.77 | – | –
Cc1ncsc1-c1ccc(C2(NC(=O)[C@@H]3C[C@@H](O)CN3C(=O)[C@@H](NC(=O)c3ccc(COc4c(-c5c(C)c(F)cc6[nH]ncc56)c(C5CC5)cc5c(N6C[C@@H]7C[C@H]6CN7)nc(OC6CCOCC6)nc45)cc3)C(C)C)CC2)cc1 [Example 1] | 6.72 | 7.05 | – | –
Cc1ncsc1-c1ccc([C@H](CF)NC(=O)[C@@H]2C[C@@H](O)CN2C(=O)[C@H](C(C)C)n2cc(-c3ccc(COc4c(-c5c(C)c(F)cc6[nH]ncc56)c(C5CC5)cc5c(N6C[C@@H]7C[C@H]6CN7)nc(OC6CCOCC6)nc45)cc3)nn2)cc1 [Example 17] | – | – | 6.98 | 7.44
